Tested on: ornithine decarboxylase (ODC)
Assay: Inhibition of TPA induction of ornithine decarboxylase (ODC assay)
Assay type: biochemical
Details: TPA-induced ODC activity
Source text: The retinoic acid-like activity of these compounds is confirmed through the classic measure of retinoic acid activity involving the effects of retinoic acid on ornithine decarboxylase. The original work on the correlation between retinoic acid and decrease in cell proliferation was done by Verma & Boutwell, Cancer Research, 1977, 37,2196-2201. That reference discloses that ornithine decarboxylase (ODC) activity increased precedent to polyamine biosynthesis. It has been established elsewhere that increases in polyamine synthesis can be correlated or associated with cellular proliferation. Thus, if ODC activity could be inhibited, cell hyperproliferation could be modulated. Although all cases for ODC activity increases are unknown, it is known that 12-0-tetradecanoylphorbol-13-acetate (TPA) induces ODC activity. Retinoic acid inhibits this induction of ODC activity by TPA. […] Activity of exemplary compounds of the present invention in the above-described ODC assay is disclosed in Table 1 which provides IC80 data for the exemplary compounds. ("IC80 " is that concentration of the test compound which causes 80% inhibition in the ODC assay).

IC80 conc (concentration of the test compound which causes 80% inhibition in the ODC assay) [nmols]	Structure (SMILES)
> 300	CCOC(=O)c1ccc([C@@H]2O[C@@]2(C)c2ccc3c(c2)C(C)(C)CC(C)(C)O3)cc1 (relative stereo) [Compound 1, Ethyl(±)-(E)-4-[2-methyl-2-(2,2,4,4-tetramethylchroman-6-yl)oxiran-1-yl]benzoate]
73	CC1(C)CC(C)(C)c2cc([C@]3(C)O[C@H]3c3ccc(C(=O)O)cc3)ccc2O1 (relative stereo) [Compound 2, (±)-(E)T4-[2-methyl-2-(2,2,4,4-tetramethylchroman-6-yl)oxiran-1-yl]benzoic acid]
